Assay results: patent US20190338284A1, “COMPLEX FOR DRUG DELIVERY AND STABILIZATION AND PREPARATION METHOD THEREOF” (INTEROLIGO CORPORATION, priority 2016, published 2019)
“Also recorded” adds a separate entry of the source.

Experiments:
Assay type in all cases: cell-based, human
[1] = test system: BT-474 and MCF-7 breast cancer cell lines; test: WST-1 assay of ERBB2 aptamer-siRNA conjugate on breast cancer cell lines
Description: In addition, WST-1 assay for the breast cancer cell lines, i.e., BT-474 and MCF-7, was performed. Cell inhibition efficacy validation of ERBB2 aptamer to the breast cancer cell lines was performed in vitro through WST-1 assay. After treating the breast cancer cell lines with a control ERBB2 aptamer without activity, as well as ERBB2 aptamer-siRNA conjugate wherein an effective anticancer agent having excellent anticancer efficacy, that is, siRNA is bound to ERBB2 target aptamer having a cancer cell targeting function, respectively, WST-1 assay was performed.

[2] = test system: BT-474 and MCF-7 breast cancer cell lines; test: WST-1 assay of atelocollagen-[ERBB2 aptamer-siRNA conjugate] complex on breast cancer cell lines
Description: Cell inhibition efficacy validation of atelcollagen-[ERBB2 aptamer-siRNA conjugate] complex to breast cancer cell lines, i.e., BT-474 and MCF-7, was performed in vitro through WST-1 assay. After treating the breast cancer cell lines with naked ERBB2, atelocollagen-[control aptamer-siRNA conjugate] complex without activity, as well as atelocollagen-[ERBB2 aptamer-siRNA conjugate] complex wherein an effective anticancer agent having excellent anticancer efficacy, that is, siRNA is bound to ERBB2 target aptamer having a cancer cell targeting function, respectively, WST-1 assay was performed.

[3] = test system: BxPC3, Miapaca-2, Panc-1 and capan-1 pancreatic cancer cell lines; test: WST-1 assay of aptamer-drug conjugate on pancreatic cancer cell lines; conditions: WST-1, 0.1 to 100 μM, 72 hours; listed as AS1411 aptamer
Description: WST-1 assay for pancreatic cancer cell lines, i.e., BxPC3, Miapaca-2, Panc-1 and capan-1 was performed. Cell inhibition efficacy validation of AS1411-Gem conjugate to the pancreatic cancer cell lines was performed in vitro through WST-1 assay. First, a control aptamer CRO in a naked form without being combined with an anticancer agent, AS1411 having a cancer cell-targeting function, as well as CRO-Gem conjugate and AS1411-Gem conjugate which are combined with an anticancer agent effective to pancreatic cancer, i.e., gemcitabine, respectively, were prepared (Table 2).
Experimental procedure: Each of the pancreatic cancer cell lines, that is, B×PC3, Miapaca-2, Panc-1 and capan-1 (ATCC, RPMI+10% FBS), was seeded on a 96-well plate in a cell number of 1 to 2×10^4 cells/well, which was defined by a cell test method to determine an appropriate cell concentration, followed by growing for 1 day. The aptamer and aptamer-drug conjugate were dissolved in PBS, respectively, and were immediately treated in each well at concentrations from 0.1 μM up to 100 μM. The treated cells were incubated in a 5% CO2 incubator for 72 hours, treated with 10 μl of a reagent solution for WST-1 assay (WST-1, Roche), respectively, followed by measuring the absorbance at 440 nm using an ELISA reader (FIG. 13).

ERBB2 aptamer-siRNA conjugate (chain 1 AGCUGUCACAGAGGGGCUACUU; chain 2 GUAGCCCCUCUGUGACAGCUU; siRNA conjugated to ERBB2 aptamer, further chemistry not given here)
cell viability and proliferation, comparison of efficacy [1]: much better efficacy than the ERBB2 aptamer
cell viability and proliferation, comparison of efficacy [2]: much better efficacy than the control group

TTTGGTGGTGGTGGTTGTGGTGGTGGTGG (SEQ ID NO: 3) [AS1411]
cell viability and proliferation, comparison of efficacy [3]: much better efficacy than CRO; also recorded: more excellent efficacy than the case of treatment using the original anticancer agent, that is, gemcitabine alone
